Patent publication US11099176B2 (priority 2015, dated 2021)
Where two headings read alike, the source gives them in different places.

Columns and labels:
[1] = molecular target: Marinobacter sp. msLacBP6 variant 187C, 70M, SEQ ID NO: 53, Acrylodan conjugate, immobilized on Ni-NTA beads; experiment: Lactate titration of immobilized conjugate on magnetic Ni-NTA beads; details: read-out: trueKd (lactate), λ1 452, λ2 525 nm
[2] = molecular target: Marinobacter sp. msLacBP6 variant V188C, SEQ ID NO: 39, Badan conjugate; experiment: Fluorescence titration of conjugate; format: binding; details: read-out: trueKd (lactate); monochromatic, 513 nm
[3] = molecular target: T1, Flexistipes sinusarabici fsLacBP13 variant W188C, SEQ ID NO: 47, Badan conjugate (Flexistipes sinusarabici, UniProt F8E724, W211C); experiment: Fluorescence titration of conjugate; format: binding
T1 construct: Badan on Cys188
T1 sequence (F8E724 entry or part of it W211C): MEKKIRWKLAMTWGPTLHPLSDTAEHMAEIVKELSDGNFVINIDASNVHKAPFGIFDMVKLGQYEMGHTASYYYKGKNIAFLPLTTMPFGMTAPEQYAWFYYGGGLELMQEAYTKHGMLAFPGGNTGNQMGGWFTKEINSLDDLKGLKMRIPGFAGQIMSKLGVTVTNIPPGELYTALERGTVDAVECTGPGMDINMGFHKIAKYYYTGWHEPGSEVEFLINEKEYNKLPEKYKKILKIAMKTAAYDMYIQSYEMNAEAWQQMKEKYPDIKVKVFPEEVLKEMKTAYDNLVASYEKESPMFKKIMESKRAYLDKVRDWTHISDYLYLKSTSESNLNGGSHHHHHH

[4] = molecular target: T2, Pseudomonas stuztzeri psLacBP11 variant W195C, SEQ ID NO: 45, Acrylodan conjugate (Stutzerimonas nitrititolerans, UniProt A0ABX9V4I2, W224C); experiment: Fluorescence titration of conjugate; format: binding; details: λ1 487, λ2 466 nm
T2 construct: Acrylodan on Cys195
T2 sequence (A0ABX9V4I2 entry or part of it W224C): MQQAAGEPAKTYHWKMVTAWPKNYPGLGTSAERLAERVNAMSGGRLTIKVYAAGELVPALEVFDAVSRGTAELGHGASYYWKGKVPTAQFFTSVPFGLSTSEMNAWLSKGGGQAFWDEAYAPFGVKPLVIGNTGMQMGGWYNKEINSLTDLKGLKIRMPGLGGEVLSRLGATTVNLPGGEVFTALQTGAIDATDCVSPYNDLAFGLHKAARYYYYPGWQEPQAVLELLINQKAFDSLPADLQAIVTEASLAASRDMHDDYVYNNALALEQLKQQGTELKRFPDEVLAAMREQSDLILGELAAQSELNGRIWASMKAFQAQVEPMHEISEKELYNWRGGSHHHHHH

[5] = molecular target: Marinobacter sp. msLacBP6 variant 187C, L70M, SEQ ID NO: 53, Acrylodan conjugate; experiment: Fluorescence titration of conjugate (affinity tuning); format: binding; details: λ1 455, λ2 479 nm
[6] = molecular target: Marinobacter sp. msLacBP6 variant 187C, L70I, SEQ ID NO: 52, Acrylodan conjugate; experiment: as above; format: binding; details: λ1 452, λ2 582 nm
[7] = molecular target: Marinobacter sp. msLacBP6 variant Y187C, C-terminal βZif fusion, SEQ ID NO: 61, Acrylodan and βZif 5IAF (Fluorescein) conjugate; experiment: Fluorescence titration of doubly labeled conjugate (ngmFRET); format: binding
Source text: (§1) We tested whether non-geometrically modulated fluorescence energy transfer (ngmFRET) effects in doubly labeled proteins could improve ratiometric signaling. To this end, we fused a small, disulfide-containing domain, βZif (Smith et al., 2005, Protein Sci, 14, 64-73) to the C-terminus of msLacBP6 187C (Table 5). This arrangement enables independent, site-specific labeling with two different, thiol-reactive fluorophores by first reacting at the unprotected thiol in the msLacBP6, followed by a reduction of the […] disulfide to deprotect and label this second site with a second fluorophore. […] Indirectly responsive partners are selected according to their excitation and emission characteristics such that energy transfer is established between the two fluorophores. […] Mechanisms for non-geometrically modulated FRET (ngmFRET) effects are detailed in Materials and Methods and PCT International Patent Application No. PCT/US 16/62958, filed Nov. 19, 2016, the entire content of which is incorporated herein by reference.
(§2) In the Badan conjugates, the ngmFRET coupling was so strong that all the donor excited state energy was transferred to the acceptor, and the signal was converted from a dichromatic to a monochromatic response. In the Acrylodan conjugates, an improvement in the dichromatic signal was observed (FIG. 7).
(§3) Temperatures were advanced in 1K steps. […] Under these experimental photobleaching was not observed.

[8] = molecular target: Marinobacter sp. msLacBP6 variant Y187C, C-terminal βZif fusion, SEQ ID NO: 61, Acrylodan and βZif Alexa532 conjugate; experiment: as above; format: binding
Source text: as §1, §2, §3

[9] = molecular target: Marinobacter sp. msLacBP6 variant 187C, F68L, SEQ ID NO: 49, Acrylodan conjugate; experiment: Fluorescence titration of conjugate (affinity tuning); format: binding; details: λ1 459, λ2 516 nm
[10] = molecular target: Marinobacter sp. msLacBP6 variant 187C, F68M, SEQ ID NO: 50, Acrylodan conjugate; experiment: as above; format: binding; details: λ1 459, λ2 516 nm
[11] = molecular target: Marinobacter sp. msLacBP6 variant G170C, SEQ ID NO: 36, Badan conjugate; experiment: Fluorescence titration of conjugate; format: binding; details: read-out: trueKd (lactate); monochromatic, 520 nm
[12] = molecular target: Marinobacter sp. msLacBP6 variant 187C, P150S, SEQ ID NO: 55, Acrylodan conjugate; experiment: Fluorescence titration of conjugate (affinity tuning); format: binding; details: read-out: trueKd (lactate); monochromatic, 463 nm
[13] = molecular target: Marinobacter sp. msLacBP6 variant Y187C (187C), SEQ ID NO: 38, Badan conjugate; experiment: Fluorescence titration of conjugate; format: binding
[14] = molecular target: Marinobacter sp. msLacBP6 variant V192C, SEQ ID NO: 40, Acrylodan conjugate; experiment: Fluorescence titration of conjugate; format: binding; details: read-out: trueKd (lactate); monochromatic, 500 nm
[15] = molecular target: Marinobacter sp. msLacBP6 variant 187C, D220E, SEQ ID NO: 56, Badan conjugate; experiment: Fluorescence titration of conjugate (affinity tuning); format: binding; details: read-out: trueKd (lactate); monochromatic, 532 nm
[16] = molecular target: Marinobacter sp. msLacBP6 variant 187C, P150A, SEQ ID NO: 54, Acrylodan conjugate; experiment: as above; format: binding; details: read-out: trueKd (lactate); monochromatic, 463 nm
[17] = molecular target: Marinobacter sp. msLacBP6 variant 187C, P150S, SEQ ID NO: 55, Badan conjugate; experiment: as above; format: binding; details: read-out: trueKd (lactate); monochromatic, 528 nm
[18] = molecular target: Marinobacter sp. msLacBP6 variant 187C, L70I, SEQ ID NO: 52, Badan conjugate; experiment: as above; format: binding; details: λ1 460, λ2 537 nm

## C[C@H](O)C(=O)O [lactate]
[1]
  Kd: 1200 µM
[2]
  Kd: 400 µM
[3]
  Kd: > 100000 µM
[3]; read-out: trueKd (lactate), λ1 483, λ2 466 nm
  Kd: > 100000 µM
[4]; read-out: appKd (lactate)
  Kd: > 100000 µM
[4]; read-out: trueKd (lactate)
  Kd: > 100000 µM
[5]; read-out: appKd (lactate)
  Kd: 1600 µM
[5]; read-out: trueKd (lactate)
  Kd: 1200 µM
[6]; read-out: appKd (lactate)
  Kd: 400 µM
[6]; read-out: trueKd (lactate)
  Kd: 300 µM
[7]; read-out: appKd (lactate), λ1 452, λ2 520 nm
  Kd: 300 µM
[7]; read-out: trueKd (lactate), λ1 452, λ2 520 nm
  Kd: 300 µM
[8]; read-out: appKd (lactate), λ1 452, λ2 550 nm
  Kd: 400 µM
[8]; read-out: trueKd (lactate), λ1 452, λ2 550 nm
  Kd: 300 µM
[9]; read-out: appKd (lactate)
  Kd: 600 µM
[9]; read-out: trueKd (lactate)
  Kd: 500 µM
[10]; read-out: appKd (lactate)
  Kd: 700 µM
[10]; read-out: trueKd (lactate)
  Kd: 500 µM
[11]
  Kd: 20 µM
[12]
  Kd: 24000 µM
[13]; read-out: appKd (lactate), approximate, text statement for Acrylodan and Badan conjugates
  Kd: ~400 µM
[13]; read-out: appKd (lactate), λ1 460, λ2 537 nm
  Kd: 300 µM
[13]; read-out: appKd (lactate), λ1 539, λ2 459 nm (Table 6)
  Kd: 110 µM
[13]; read-out: trueKd (lactate), λ1 460, λ2 537 nm
  Kd: 200 µM
[13]; read-out: trueKd (lactate), λ1 539, λ2 459 nm (Table 6)
  Kd: 250 µM
[14]
  Kd: 20 µM
[15]
  Kd: 3100 µM
[16]
  Kd: 6800 µM
[17]
  Kd: 14400 µM
[18]; read-out: appKd (lactate)
  Kd: 300 µM
[18]; read-out: trueKd (lactate)
  Kd: 200 µM
